Source: PubChem BioAssay AID330 (DTP/NCI, 2004)
Several values for one entry are separate records, joined by “and”; a condition that tells them apart may be missing. Equal entries are not always repeated. Toxic doses and inconclusive results are not listed.

Test system: P388 leukemia ip, CD2F1 mice, survival T/C
Test: NCI In Vivo Anticancer Drug Screen. Data for tumor model P388 Leukemia (intraperitoneal) in CD2F1 (CDF1) mice
Details: endpoint: median survival time, higher = longer survival
Outline: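 Mice carrying the transplanted tumor received test compound or vehicle. Survival was recorded in each group, and the value is the treated-group measurement divided by that of the vehicle-treated control group.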

## CN(Cc1cnc2nc(N)nc(N)c2n1)c1ccc(C(=O)N[C@@H](CCC(=O)O)C(=O)O)cc1
dose: 0.09 mg/kg/injection, schedule: Q01DX009 (ip), vehicle: sodium bicarbonate
  T/C: 120 % of control
dose: 0.18 mg/kg/injection, schedule: Q01DX009 (ip), vehicle: sodium bicarbonate
  T/C: 113 % of control
dose: 0.25 mg/kg/injection, schedule: Q01DX005 (ip), vehicle: sodium bicarbonate
  T/C: 117 % of control
dose: 0.25 mg/kg/injection, schedule: Q01DX009 (ip), vehicle: sodium bicarbonate
  T/C: 150 % of control and 154 % of control
dose: 0.32 mg/kg/injection, schedule: Q01DX009 (ip), vehicle: sodium bicarbonate
  T/C: 166 % of control and 168 % of control
dose: 0.38 mg/kg/injection, schedule: Q01DX009 (ip), vehicle: other
  T/C: 163 % of control
dose: 0.38 mg/kg/injection, schedule: Q01DX009 (ip), vehicle: saline
  T/C: 169 % of control
dose: 0.38 mg/kg/injection, schedule: Q## X009 (ip), vehicle: sodium bicarbonate
  T/C: 154 % of control
dose: 0.48 mg/kg/injection, schedule: Q01DX009 (ip), vehicle: sodium bicarbonate
  T/C: 168 % of control
dose: 0.5 mg/kg/injection, schedule: Q01DX009 (ip), vehicle: sodium bicarbonate
  T/C: 176 % of control and 177 % of control
dose: 0.54 mg/kg/injection, schedule: Q01DX009 (ip), vehicle: sodium bicarbonate
  T/C: 175 % of control and 180 % of control
dose: 0.6 mg/kg/injection, schedule: Q01DX009 (ip), vehicle: clinical formulation
  T/C: 164 % of control
dose: 0.62 mg/kg/injection, schedule: Q01DX005 (ip), vehicle: sodium bicarbonate
  T/C: 158 % of control
dose: 0.73 mg/kg/injection, schedule: Q01DX009 (ip), vehicle: sodium bicarbonate
  T/C: 184 % of control
dose: 0.75 mg/kg/injection, schedule: Q01DX005 (ip), vehicle: sodium bicarbonate
  T/C: 166 % of control
dose: 0.75 mg/kg/injection, schedule: Q01DX009 (ip), vehicle: other
  T/C: 195 % of control
dose: 0.75 mg/kg/injection, schedule: Q01DX009 (ip), vehicle: saline
  T/C: 200 % of control
dose: 0.75 mg/kg/injection, schedule: Q01DX015 (ip), vehicle: sodium bicarbonate
  T/C: 186 % of control
dose: 0.75 mg/kg/injection, schedule: Q## X009 (ip), vehicle: sodium bicarbonate
  T/C: 190 % of control
dose: 0.8 mg/kg/injection, schedule: Q01DX009 (ip), vehicle: clinical formulation
  T/C: 164 % of control
dose: 1.0 mg/kg/injection, schedule: Q01DX009 (ip), vehicle: clinical formulation
  T/C: 180 % of control
dose: 1.0 mg/kg/injection, schedule: Q01DX009 (ip), vehicle: sodium bicarbonate
  T/C: 177 % of control and 194 % of control and 195 % of control
dose: 1.0 mg/kg/injection, schedule: Q02DX005 (ip), vehicle: sodium bicarbonate
  T/C: 160 % of control
dose: 1.1 mg/kg/injection, schedule: Q01DX009 (ip), vehicle: sodium bicarbonate
  T/C: 192 % of control
dose: 1.2 mg/kg/injection, schedule: Q01DX009 (ip), vehicle: clinical formulation
  T/C: 189 % of control
dose: 1.25 mg/kg/injection, schedule: Q01DX005 (ip), vehicle: sodium bicarbonate
  T/C: 182 % of control
dose: 1.3 mg/kg/injection, schedule: Q01DX009 (ip), vehicle: sodium bicarbonate
  T/C: 196 % of control
dose: 1.5 mg/kg/injection, schedule: Q01DX005 (ip), vehicle: sodium bicarbonate
  T/C: 182 % of control
dose: 1.7 mg/kg/injection, schedule: Q01DX009 (ip), vehicle: sodium bicarbonate
  T/C: 106 % of control
dose: 1.75 mg/kg/injection, schedule: Q01DX005 (ip), vehicle: sodium bicarbonate
  T/C: 182 % of control
dose: 2.0 mg/kg/injection, schedule: Q01DX005 (iv), vehicle: sodium bicarbonate
  T/C: 161 % of control
dose: 2.0 mg/kg/injection, schedule: Q02DX005 (ip), vehicle: saline
  T/C: 105 % of control
dose: 2.0 mg/kg/injection, schedule: Q02DX005 (ip), vehicle: sodium bicarbonate
  T/C: 163 % of control and 192 % of control
dose: 2.3 mg/kg/injection, schedule: Q04DX003 (ip), vehicle: saline
  T/C: 181 % of control
dose: 2.5 mg/kg/injection, schedule: Q01DX005 (ip), vehicle: sodium bicarbonate
  T/C: 187 % of control
dose: 2.5 mg/kg/injection, schedule: Q01DX006 (ip), vehicle: sodium bicarbonate
  T/C: 179 % of control
dose: 2.5 mg/kg/injection, schedule: Q04DX003 (ip), vehicle: sodium bicarbonate
  T/C: 183 % of control
dose: 3.0 mg/kg/injection, schedule: Q01DX006 (ip), vehicle: sodium bicarbonate
  T/C: 170 % of control
dose: 3.0 mg/kg/injection, schedule: Q01DX015 (ip), vehicle: sodium bicarbonate
  T/C: 110 % of control
dose: 3.0 mg/kg/injection, schedule: Q02DX005 (ip), vehicle: saline
  T/C: 105 % of control
dose: 3.0 mg/kg/injection, schedule: Q02DX005 (ip), vehicle: sodium bicarbonate
  T/C: 182 % of control
dose: 3.0 mg/kg/injection, schedule: Q## X009 (ip), vehicle: sodium bicarbonate
  T/C: 118 % of control
dose: 3.13 mg/kg/injection, schedule: Q01DX001 (ip), vehicle: sodium bicarbonate
  T/C: 122 % of control
dose: 3.5 mg/kg/injection, schedule: Q01DX006 (ip), vehicle: sodium bicarbonate
  T/C: 187 % of control
dose: 4.0 mg/kg/injection, schedule: Q01DX005 (iv), vehicle: sodium bicarbonate
  T/C: 190 % of control
dose: 4.32 mg/kg/injection, schedule: Q04DX003 (ip), vehicle: sodium bicarbonate
  T/C: 171 % of control
dose: 4.5 mg/kg/injection, schedule: Q04DX003 (ip), vehicle: sodium bicarbonate
  T/C: 174 % of control
dose: 4.6 mg/kg/injection, schedule: Q04DX003 (ip), vehicle: saline
  T/C: 204 % of control
dose: 5.0 mg/kg/injection, schedule: Q04DX003 (ip), vehicle: sodium bicarbonate
  T/C: 189 % of control
dose: 5.18 mg/kg/injection, schedule: Q04DX003 (ip), vehicle: sodium bicarbonate
  T/C: 180 % of control
dose: 6.48 mg/kg/injection, schedule: Q04DX003 (ip), vehicle: sodium bicarbonate
  T/C: 182 % of control
dose: 7.2 mg/kg/injection, schedule: Q04DX003 (ip), vehicle: sodium bicarbonate
  T/C: 199 % of control
dose: 7.78 mg/kg/injection, schedule: Q04DX002 (ip), vehicle: sodium bicarbonate
  T/C: 171 % of control
dose: 8.64 mg/kg/injection, schedule: Q04DX003 (ip), vehicle: sodium bicarbonate
  T/C: 201 % of control
dose: 9.0 mg/kg/injection, schedule: Q04DX003 (ip), vehicle: sodium bicarbonate
  T/C: 116 % of control
dose: 9.0 mg/kg/injection, schedule: Q04DX003 (iv), vehicle: sodium bicarbonate
  T/C: 174 % of control
dose: 9.72 mg/kg/injection, schedule: Q04DX002 (ip), vehicle: sodium bicarbonate
  T/C: 175 % of control
dose: 10.0 mg/kg/injection, schedule: Q04DX004 (ip), vehicle: sodium bicarbonate
  T/C: 189 % of control
dose: 10.8 mg/kg/injection, schedule: Q04DX003 (ip), vehicle: sodium bicarbonate
  T/C: 202 % of control
dose: 13.0 mg/kg/injection, schedule: Q04DX002 (ip), vehicle: sodium bicarbonate
  T/C: 165 % of control
dose: 14.4 mg/kg/injection, schedule: Q04DX003 (ip), vehicle: sodium bicarbonate
  T/C: 181 % of control
dose: 15.0 mg/kg/injection, schedule: Q04DX003 (ip), vehicle: sodium bicarbonate
  T/C: 117 % of control
dose: 16.2 mg/kg/injection, schedule: Q04DX002 (ip), vehicle: sodium bicarbonate
  T/C: 195 % of control
dose: 18.0 mg/kg/injection, schedule: Q01DX001 (ip), vehicle: sodium bicarbonate
  T/C: 173 % of control
dose: 18.0 mg/kg/injection, schedule: Q04DX003 (ip), vehicle: sodium bicarbonate
  T/C: 114 % of control
dose: 18.0 mg/kg/injection, schedule: Q04DX003 (iv), vehicle: sodium bicarbonate
  T/C: 194 % of control
dose: 18.4 mg/kg/injection, schedule: Q04DX003 (ip), vehicle: saline
  T/C: 177 % of control
dose: 20.0 mg/kg/injection, schedule: Q04DX004 (ip), vehicle: sodium bicarbonate
  T/C: 189 % of control
dose: 21.6 mg/kg/injection, schedule: Q04DX002 (ip), vehicle: sodium bicarbonate
  T/C: 191 % of control
dose: 25.0 mg/kg/injection, schedule: Q04DX002 (ip), vehicle: sodium bicarbonate
  T/C: 115 % of control
dose: 25.0 mg/kg/injection, schedule: Q04DX004 (ip), vehicle: sodium bicarbonate
  T/C: 180 % of control
dose: 27.0 mg/kg/injection, schedule: Q04DX002 (ip), vehicle: sodium bicarbonate
  T/C: 201 % of control
dose: 33.3 mg/kg/injection, schedule: Q01DX001 (ip), vehicle: sodium bicarbonate
  T/C: 109 % of control
dose: 36.0 mg/kg/injection, schedule: Q01DX001 (ip), vehicle: sodium bicarbonate
  T/C: 150 % of control
dose: 36.0 mg/kg/injection, schedule: Q01DX001 (iv), vehicle: sodium bicarbonate
  T/C: 156 % of control
dose: 36.0 mg/kg/injection, schedule: Q04DX003 (iv), vehicle: sodium bicarbonate
  T/C: 124 % of control
dose: 40.0 mg/kg/injection, schedule: Q01DX001 (ip), vehicle: sodium bicarbonate
  T/C: 150 % of control
dose: 42.0 mg/kg/injection, schedule: Q04DX002 (ip), vehicle: sodium bicarbonate
  T/C: 105 % of control
dose: 45.0 mg/kg/injection, schedule: Q04DX002 (ip), vehicle: sodium bicarbonate
  T/C: 200 % of control
dose: 50.0 mg/kg/injection, schedule: Q04DX003 (ip), vehicle: sodium bicarbonate
  T/C: 111 % of control
dose: 72.0 mg/kg/injection, schedule: Q01DX001 (iv), vehicle: sodium bicarbonate
  T/C: 161 % of control
dose: 100.0 mg/kg/injection, schedule: Q01DX001 (ip), vehicle: sodium bicarbonate
  T/C: 158 % of control and 161 % of control
dose: 125.0 mg/kg/injection, schedule: Q01DX001 (ip), vehicle: sodium bicarbonate
  T/C: 166 % of control
dose: 150.0 mg/kg/injection, schedule: Q01DX001 (ip), vehicle: sodium bicarbonate
  T/C: 158 % of control
dose: 200.0 mg/kg/injection, schedule: Q01DX001 (ip), vehicle: sodium bicarbonate
  T/C: 170 % of control
dose: 400.0 mg/kg/injection, schedule: Q01DX001 (ip), vehicle: sodium bicarbonate
  T/C: 181 % of control
